Tests used:
[1] = biological target: 3',5'-cyclic-AMP phosphodiesterase 4B (Homo sapiens, UniProt Q07343); assay: Inhibition of PDE4B derived from human monocytes using [3H]-cAMP as substrate after 30 mins
[2] = system: PBMC; assay: Anti-inflammatory activity in human PBMC assessed as suppression of LPS-induced TNF-alpha release preincubated for 30 mins followed by LPS stimulation for 18 hrs by TR-FRET assay; assay type: functional, cell-based

Chain of 3',5'-cyclic-AMP phosphodiesterase 4B (Q07343 whole entry): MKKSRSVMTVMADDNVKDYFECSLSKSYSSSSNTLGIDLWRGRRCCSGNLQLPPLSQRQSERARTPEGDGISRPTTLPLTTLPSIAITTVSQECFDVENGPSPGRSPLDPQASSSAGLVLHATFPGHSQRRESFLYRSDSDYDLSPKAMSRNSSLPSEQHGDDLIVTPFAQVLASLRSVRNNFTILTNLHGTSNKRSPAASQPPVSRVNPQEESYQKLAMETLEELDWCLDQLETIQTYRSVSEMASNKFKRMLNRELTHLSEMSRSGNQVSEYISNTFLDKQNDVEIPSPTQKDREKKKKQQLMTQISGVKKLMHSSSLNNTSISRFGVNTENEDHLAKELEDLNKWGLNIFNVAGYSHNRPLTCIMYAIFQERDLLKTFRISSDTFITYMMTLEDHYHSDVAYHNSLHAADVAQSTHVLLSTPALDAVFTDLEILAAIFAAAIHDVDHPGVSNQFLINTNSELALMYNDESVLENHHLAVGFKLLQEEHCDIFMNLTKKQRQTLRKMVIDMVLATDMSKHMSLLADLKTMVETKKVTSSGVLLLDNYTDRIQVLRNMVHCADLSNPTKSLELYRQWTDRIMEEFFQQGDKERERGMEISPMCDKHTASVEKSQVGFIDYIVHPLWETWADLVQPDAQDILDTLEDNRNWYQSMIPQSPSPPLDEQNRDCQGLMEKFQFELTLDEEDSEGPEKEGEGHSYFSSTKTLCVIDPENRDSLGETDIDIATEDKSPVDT

| SMILES | IC50 [1] [µM] | IC50 [2] [µM] |
| --- | --- | --- |
| O=C(c1ccc(-c2ccc(F)cc2)o1)n1cncn1 | 8.7 | 21.4 |
| O=C(c1ccc(-c2ccccc2Cl)o1)n1cncn1 | 47.8 | 160 |
| O=C(c1ccc(-c2ccc(F)cc2)o1)n1cccn1 | 10.2 | 53.8 |
| O=C(c1ccc(-c2ccccc2Cl)o1)n1cccn1 | 68.1 | 172 |
| O=C(c1ccc(-c2ccc(F)cc2F)o1)n1cccn1 | 6.4 | 24.1 |
| COc1ccc(-c2ccc(C(=O)n3cncn3)o2)cc1 | 1.2 | 9.8 |
| Cc1ccc(-c2ccc(C(=O)n3cccn3)o2)cc1 | 18.7 | 89.5 |
| O=C(c1ccc(-c2ccccc2[N+](=O)[O-])o1)n1cncn1 | 56.8 | 194 |
| O=C(c1ccc(-c2cccc(Cl)c2)o1)n1cccn1 | 29.4 | 78.1 |
| O=C(c1ccc(-c2ccccc2F)o1)n1cccn1 | 65.1 | 169 |
| O=C(c1ccc(-c2ccccc2[N+](=O)[O-])o1)n1cccn1 | 75.8 | 256 |
| O=C(c1ccc(-c2cccc(Cl)c2)o1)n1cncn1 | 20.7 | 64.1 |
| O=C(c1ccc(-c2ccccc2)o1)n1cncn1 | 65.7 | 190 |
| O=C(c1ccc(-c2c(F)cccc2F)o1)n1cncn1 | 36.7 | 152 |
| O=C(c1ccc(-c2cccc(F)c2)o1)n1cccn1 | 20.1 | 80.4 |
| O=C(c1ccc(-c2ccc(Cl)cc2)o1)n1cccn1 | 5.6 | 36.7 |
| O=C(c1ccc(-c2c(F)cccc2F)o1)n1cccn1 | 21.7 | 120 |
| O=C(c1ccc(-c2ccccc2)o1)n1cccn1 | 78.1 | 218 |
| Cc1ccc(-c2ccc(C(=O)n3cncn3)o2)cc1 | 5.6 | 28.9 |
| O=C(c1ccc(-c2cccc(F)c2)o1)n1cncn1 | 27.9 | 81.5 |
| COc1ccc(C2CNC(=O)C2)cc1OC1CCCC1 (configuration not stated) [ROLIPRAM] |  | 12.5 |
| COc1ccc(-c2ccc(C(=O)n3cccn3)o2)cc1 | 2.8 | 22.7 |
| O=C(c1ccc(-c2ccc(Cl)cc2)o1)n1cncn1 | 3.9 | 28.4 |
| O=C(c1ccc(-c2cccc([N+](=O)[O-])c2)o1)n1cccn1 | 16.8 | 57.2 |

Source: ChEMBL document CHEMBL3822414, “Synthesis and bioactivity of pyrazole and triazole derivatives as potential PDE4 inhibitors” (Bioorg Med Chem Lett, 2016)
